Results from ChEMBL document CHEMBL3351410, “The discovery of avanafil for the treatment of erectile dysfunction: a novel pyrimidine-5-carboxamide derivative as a potent and highly selective phosphodiesterase 5 inhibitor” (Bioorg Med Chem Lett, 2014).

Target: cGMP-specific 3',5'-cyclic phosphodiesterase (Canis lupus familiaris, UniProt O77746)
Experiment: Inhibition of dog lungs PDE5 using [3H]cGMP as substrate after 30 mins by scintillation counting analysis

Compound | IC50
COc1ccc(CNc2nc(OCc3ccccn3)ncc2C(=O)OCc2ccccn2)cc1Cl | 2.1 nM
COc1ccc(CNc2nc(N3CCC[C@H]3CO)ncc2C(=O)N[C@H]2CC[C@H](O)CC2)cc1Cl | 1.8 nM
CCOC(=O)c1cnc(OCc2ccccn2)nc1NCc1ccc(OC)c(Cl)c1 | 5.5 nM
COc1ccc(CNc2nc(N3CCC[C@H]3CO)ncc2C(=O)N[C@H]2CC[C@H](OC)CC2)cc1Cl | 0.9 nM
COc1ccc(CNc2nc(OCc3ccccn3)ncc2C(=O)NCc2ncccn2)cc1Cl | 12 nM
COCCCNC(=O)c1cnc(OCc2ccccn2)nc1NCc1ccc(OC)c(Cl)c1 | 15 nM
COc1ccc(CNc2nc(N3CCC[C@H]3CO)ncc2C(=O)NCCCO)cc1Cl | 6.6 nM
COc1ccc(CN=c2[nH]c(N3CCC[C@H]3CO)ncc2C(=O)NCc2ncccn2)cc1Cl [AVANAFIL] | 5.2 nM
COc1ccc(CNc2nc(OCc3ccccn3)ncc2C(=O)OCc2ncccn2)cc1Cl | 4.2 nM
COc1ccc(CNc2nc(OCc3ccccn3)ncc2C(=O)N(C)Cc2ccccn2)cc1Cl | 85 nM

The next lines start with the values.

IC50 | Compound
12 nM | COc1ccc(CNc2nc(OCc3ccccn3)ncc2C(=O)NCCCCO)cc1Cl
3.5 nM | COc1ccc(CNc2nc(OCc3ccccn3)ncc2C(=O)N[C@H]2CC[C@H](O)CC2)cc1Cl
> 100 nM | COc1ccc(CNc2nc(N3CCOC[C@H]3CO)ncc2C(=O)NCc2ncccn2)cc1Cl
2.7 nM | COc1ccc(CNc2nc(OCc3ccccn3)ncc2C(=O)NCc2ccccn2)cc1Cl
63 nM | COc1ccc(CNc2nc(N3CCCC(CO)C3)ncc2C(=O)NCc2ncccn2)cc1Cl (configuration not stated)
6.5 nM | COc1ccc(CNc2nc(N3Cc4ccccc4C[C@H]3CO)ncc2C(=O)NCc2ccccn2)cc1Cl
6.1 nM | COc1ccc(CNc2nc(N3CCC[C@H]3CO)ncc2C(=O)NCC2CN(C)CCO2)cc1Cl (some centres not stated)
1.2 nM | COc1ccc(CNc2nc(N3CCC[C@H]3CO)ncc2C(=O)NCc2ccccn2)cc1Cl
32 nM | COc1ccc(CNc2nc(N(C)CCO)ncc2C(=O)NCc2ccccn2)cc1Cl
25 nM | COc1ccc(CNc2nc(N3CCC(CO)C3)ncc2C(=O)NCc2ncccn2)cc1Cl (configuration not stated)
59 nM | COc1ccc(CNc2nc(N3CCC(O)CC3)ncc2C(=O)NCc2ccccn2)cc1Cl
32 nM | COc1ccc(CNc2nc(N3CCOC(CO)C3)ncc2C(=O)NCc2ccccn2)cc1Cl (configuration not stated)
5.6 nM | COc1ccc(CNc2nc(OCc3ccccn3)ncc2C(=O)NCCN2CCOCC2)cc1Cl
36 nM | COc1ccc(CNc2nc(N3CCC[C@@H]3CO)ncc2C(=O)NCc2ncccn2)cc1Cl
54 nM | COc1ccc(CNc2nc(N3CCCCC3CO)ncc2C(=O)NCc2ccccn2)cc1Cl (configuration not stated)
13 nM | COc1ccc(CNc2nc(OCc3ccccn3)ncc2C(=O)NCCCO)cc1Cl

System: Corpus cavernosum
Experiment: Induction of relaxant effect in rabbit corpus cavernosum after 30 mins
Assay type: functional, Oryctolagus cuniculus

Compound | EC30
COc1ccc(CNc2nc(N3CCC[C@H]3CO)ncc2C(=O)N[C@H]2CC[C@H](O)CC2)cc1Cl | >100 nM
CCOC(=O)c1cnc(OCc2ccccn2)nc1NCc1ccc(OC)c(Cl)c1 | 37 nM
COc1ccc(CNc2nc(N3CCC[C@H]3CO)ncc2C(=O)N[C@H]2CC[C@H](OC)CC2)cc1Cl | 6.8 nM
COc1ccc(CNc2nc(N3CCC[C@H]3CO)ncc2C(=O)NCC2CN(C)CCO2)cc1Cl (some centres not stated) | 2.7 nM
COc1ccc(CNc2nc(N3CCC[C@H]3CO)ncc2C(=O)NCCCO)cc1Cl | 4.9 nM
COc1ccc(CNc2nc(N3CCC[C@H]3CO)ncc2C(=O)NCc2ccccn2)cc1Cl | 22 nM
COc1ccc(CNc2nc(N3CCC[C@H]3CO)ncc2C(=O)NCc2ncccn2)cc1Cl [AVANAFIL] | 2.1 nM

Organism: Homo sapiens
Experiment: Selectivity for PDE5 (unknown origin) over PDE6 (unknown origin)

Selectivity ratio | Compound
16 | CCCc1nn(C)c2c(=O)[nH]c(-c3cc(S(=O)(=O)N4CCN(C)CC4)ccc3OCC)nc12
550 | CN1CC(=O)N2[C@H](c3ccc4c(c3)OCO4)c3[nH]c4ccccc4c3C[C@@H]2C1=O
121 | COc1ccc(CNc2nc(N3CCC[C@H]3CO)ncc2C(=O)NCc2ncccn2)cc1Cl [AVANAFIL]
21 | CCCc1nc(C)c2c(=O)nc(-c3cc(S(=O)(=O)N4CCN(CC)CC4)ccc3OCC)[nH]n12

Organism: Homo sapiens
Experiment: Selectivity for PDE5 (unknown origin) over PDE1 (unknown origin)

Selectivity ratio | Compound
> 1000 | COc1ccc(CNc2nc(N3CCC[C@H]3CO)ncc2C(=O)NCc2ncccn2)cc1Cl [AVANAFIL]

Organism: Homo sapiens
Experiment: Selectivity for PDE5 (unknown origin) over PDE2 (unknown origin)

Selectivity ratio | Compound
> 1000 | COc1ccc(CNc2nc(N3CCC[C@H]3CO)ncc2C(=O)NCc2ncccn2)cc1Cl [AVANAFIL]

Organism: Homo sapiens
Experiment: Selectivity for PDE5 (unknown origin) over PDE3 (unknown origin)

Selectivity ratio | Compound
> 1000 | COc1ccc(CNc2nc(N3CCC[C@H]3CO)ncc2C(=O)NCc2ncccn2)cc1Cl [AVANAFIL]

Organism: Homo sapiens
Experiment: Selectivity for PDE5 (unknown origin) over PDE4 (unknown origin)

Selectivity ratio | Compound
> 1000 | COc1ccc(CNc2nc(N3CCC[C@H]3CO)ncc2C(=O)NCc2ncccn2)cc1Cl [AVANAFIL]

Organism: Homo sapiens
Experiment: Selectivity for PDE5 (unknown origin) over PDE7 (unknown origin)

Selectivity ratio | Compound
> 1000 | COc1ccc(CNc2nc(N3CCC[C@H]3CO)ncc2C(=O)NCc2ncccn2)cc1Cl [AVANAFIL]

Organism: Homo sapiens
Experiment: Selectivity for PDE5 (unknown origin) over PDE8 (unknown origin)

Selectivity ratio | Compound
> 1000 | COc1ccc(CNc2nc(N3CCC[C@H]3CO)ncc2C(=O)NCc2ncccn2)cc1Cl [AVANAFIL]

Organism: Homo sapiens
Experiment: Selectivity for PDE5 (unknown origin) over PDE9 (unknown origin)

Selectivity ratio | Compound
> 1000 | COc1ccc(CNc2nc(N3CCC[C@H]3CO)ncc2C(=O)NCc2ncccn2)cc1Cl [AVANAFIL]

Organism: Homo sapiens
Experiment: Selectivity for PDE5 (unknown origin) over PDE11 (unknown origin)

Selectivity ratio | Compound
25 | CN1CC(=O)N2[C@H](c3ccc4c(c3)OCO4)c3[nH]c4ccccc4c3C[C@@H]2C1=O
> 19200 | COc1ccc(CNc2nc(N3CCC[C@H]3CO)ncc2C(=O)NCc2ncccn2)cc1Cl [AVANAFIL]

Organism: Homo sapiens
Experiment: Selectivity for PDE5 (unknown origin) over PDE10 (unknown origin)

Selectivity ratio | Compound
> 1000 | COc1ccc(CNc2nc(N3CCC[C@H]3CO)ncc2C(=O)NCc2ncccn2)cc1Cl [AVANAFIL]

System: not listed separately
Experiment: Selectivity for dog lungs PDE5 over light-activated bovine retina PDE6

Compound | Selectivity ratio
COc1ccc(CNc2nc(OCc3ccccn3)ncc2C(=O)OCc2ccccn2)cc1Cl | 1000
COc1ccc(CNc2nc(N3CCC[C@H]3CO)ncc2C(=O)N[C@H]2CC[C@H](O)CC2)cc1Cl | 5600
COc1ccc(CNc2nc(N3CCC[C@H]3CO)ncc2C(=O)N[C@H]2CC[C@H](OC)CC2)cc1Cl | 7700
COc1ccc(CNc2nc(OCc3ccccn3)ncc2C(=O)NCc2ncccn2)cc1Cl | 720
COCCCNC(=O)c1cnc(OCc2ccccn2)nc1NCc1ccc(OC)c(Cl)c1 | 240
COc1ccc(CNc2nc(N3CCC[C@H]3CO)ncc2C(=O)NCCCO)cc1Cl | 1500
COc1ccc(CNc2nc(OCc3ccccn3)ncc2C(=O)OCc2ncccn2)cc1Cl | 640

Second part, the compound after the results:

Selectivity ratio | Compound
480 | COc1ccc(CNc2nc(OCc3ccccn3)ncc2C(=O)NCCCCO)cc1Cl
510 | COc1ccc(CNc2nc(OCc3ccccn3)ncc2C(=O)N[C@H]2CC[C@H](O)CC2)cc1Cl
480 | COc1ccc(CNc2nc(OCc3ccccn3)ncc2C(=O)NCc2ccccn2)cc1Cl
2000 | COc1ccc(CNc2nc(N3CCC[C@H]3CO)ncc2C(=O)NCC2CN(C)CCO2)cc1Cl (some centres not stated)
4300 | COc1ccc(CNc2nc(N3CCC[C@H]3CO)ncc2C(=O)NCc2ccccn2)cc1Cl
4000 | COc1ccc(CNc2nc(N3CCC[C@H]3CO)ncc2C(=O)NCc2ncccn2)cc1Cl [AVANAFIL]
630 | COc1ccc(CNc2nc(OCc3ccccn3)ncc2C(=O)NCCN2CCOCC2)cc1Cl
420 | COc1ccc(CNc2nc(OCc3ccccn3)ncc2C(=O)NCCCO)cc1Cl
